Experimental data from patent publication US11414454B2, “Compositions, methods, and systems for affinity-based protein identification and purification” (Auctus Biologies, Inc., priority 2017, dated 2022).
No end group written: not given here.

Columns and labels:
RPtag (large) = assay: Buffer additive screen, Kd by fluorescence anisotropy; format: binding, Thermoanaerobacter tengcongensis
Method: To determine reagent compatibility with the disclosed system, an additive screen was performed, wherein the Kd between RPtag (large) and 3 RPtag (small) peptides—native, Nd8Cd4, and Nd2p5ae18a—were tested in the presence of several common buffer additives (Table 3).

[1] = test system: RPtag large with rhodamine labeled PDGF-β n-terminal peptide; assay: Competition of RPtag large / PDGF-β n-terminal peptide binding by unlabeled peptide; conditions: 1 uM RPtag large, 1 uM labeled PDGF-β peptide, unlabeled competitor
Method: An initial Kd was measured between RPtag(large) and the PDGF-β N-terminal peptide (FIG. 16). […] Next, competition experiments were performed using the mutant RPtag(small) peptide Nd2,P5A,E18A.
The direct binding (left) and competition studies (right) presented in FIG. 16 were performed as follows. The indicated concentration of RPtag large was incubated with 20 nM rhodamine labeled PDGF-β n-terminal peptide for 1 h at room temperature, and the fluorescence anisotropy was measured. The curves were fit with the equation f=y0+(ymax−y0)*(Ptot+x+Kd−sqrt((Ptot+x+Kd)^2−4*Ptot*x))/(2*Ptot), where y0 is the baseline anisotropy, ymax is the maximum anisotropy, Ptot is the fixed concentration of labeled peptide used, x is the variable concentration of protein used, and Kd is the measured Kd. […] The curves were fit empirically to a 4 parameter logistic regression. In both cases, the buffer was 50 mM Tris pH 8.0, 0.005% Tween20. Curves were fit in […] each, and the data was averaged for display. Points are mean±SEM (n=3).

RPtag (large) resin = assay: Affinity-based precipitation/pull-down with RPtag (large) resin; format: binding, Thermoanaerobacter tengcongensis; conditions: 7 sequential pulldowns, 6 M guanidine hydrochloride washes
Method: The disclosed proteins and peptides were used in precipitation/pull-down assays. Specifically, rhodamine was tagged with the RPtag(small) Nd8Cd4 peptide and RPtag(large) was immobilized on a resin, as described above.
Briefly, 100 μL 1000 nM rhodamine labeled RPtag(small) peptide was incubated with 2.5 uL wet settled RPtag (large) resin generated as (as described above) in phosphate buffered saline (PBS; Gibco)+1% BSA+0.005% Tween 20 at 4° C. for 60 min with continuous orbital shaking. Samples were then washed 3× with 500 μL of the same buffer with no peptide to remove unbound peptide. Bound RPtag(small) peptides were then eluted with 100 μL 100 mM glycine pH 1.5+0.005% Tween20, and the pH raised by adding 1 μL 1 M borate pH 10.0. The amount eluted was calculated from the blank subtracted fluorescence of the elution versus the load. After each elution, resin was washed once with 500 μL 6M GdnHCl and once with 500 μL phosphate buffered saline (Gibco)+1% BSA+0.005% Tween 20, before repeating the assay.
Sequential precipitation/pulldown trials were performed with the rhodamine labelled RPtag(small) Nd8Cd4 peptide, and the RPtag(large)-resin. After binding and pull-down, the rhodamine-peptide was eluted in 100 mM glycine pH 1.5, the column was washed with water and 6 M guanidine hydrochloride, and then re-equilibrated with buffer (50 mM Tris pH 8.0, 10 mM EDTA). […]

[2] = 100 mM Tris pH 8.0, 0.005% Tween 20, No Additive

Sequence	Kd (RPtag (large); [2]) [nM]	Kd (RPtag (large); BME (10%)) [nM]	Kd (RPtag (large); CaCl2 (3M)) [nM]	Kd (RPtag (large); DMSO (20%)) [nM]	Kd (RPtag (large); DTT (100 mM)) [nM]	Kd (RPtag (large); EtOH (20%)) [nM]	Kd (RPtag (large); Gdn-HCl (6M)) [nM]	Kd (RPtag (large); KCl (3M)) [nM]	Kd (RPtag (large); MeOH (20%)) [nM]	Kd (RPtag (large); MgCl2 (3M)) [nM]	Kd (RPtag (large); MnSO4 (10 mM)) [nM]	Kd (RPtag (large); NH4SO4 (3M)) [nM]	Kd (RPtag (large); NaCl (3M)) [nM]	Kd (RPtag (large); NiCl2 (100 mM)) [nM]	Kd (RPtag (large); PG (50%)) [nM]	Kd (RPtag (large); SDS (2%)) [nM]	Kd (RPtag (large); TritonX-100 (2%)) [nM]	Kd (RPtag (large); Tween20 (2%)) [nM]	Kd (RPtag (large); acetone (20%)) [nM]	Kd (RPtag (large); glycerol (20%)) [nM]	other results
KIANFIPAELKLITKANVQ [Nd2, p5a, e18a, KIANFIPAELKLITKANVQ]	0.037	6.7	150	0.023	0.073	0.1	> 10000	0.011	0.056	350	22	44	< 0.001	2.2	49	> 10000	0.046	4.7	0.019	< 0.001	Kd (RPtag (large); imidazole (3M)): > 10000 nM; Kd (RPtag (large); ribose (3M)): < 0.001 nM; Kd (RPtag (large); sorbitol (3M)): < 0.001 nM; Kd (RPtag (large); urea (8M)): > 10000 nM; disruption of RPtag(large) binding to PDGF-β N-terminal peptide [1]: could be disrupted
PAELKLITK [Nd8, Cd4, PAELKLITK]	14	740	> 10000	140	33	733	> 10000	0.066	34	240	160	2.8	0.15	42	4600	> 10000	180	45	22	27	increased affinity with kosmotropic salts NaCl and KCl (RPtag (large); 3M salt versus no additive): > 100 fold; Kd (RPtag (large); imidazole (3M)): > 10000 nM; Kd (RPtag (large); ribose (3M)): 42 nM; Kd (RPtag (large); sorbitol (3M)): 16 nM; Kd (RPtag (large); urea (8M)): > 10000 nM; binding capacity over sequential pulldowns (RPtag (large) resin): little to no loss of binding capacity
